According to US6680199B1, “In vitro activation of mammalian oocytes” (Infigen, Inc., priority 1993, dated 2004):
Marks after values point to notes of the source that are not given here.

Columns and labels:
[1] = test system: 20-hours oocytes derived nuclear transfers; assay: Development of 20-hour oocyte derived nuclear transfers (fused after activation); format: cell-based, bovine; details: treatment at 20 hours maturation after enucleation, 4 hours DMAP with or without ionomycin 5 μM 4 min
Procedure: This experiment was conducted under similar conditions as Experiment 6 with the exception that the oocytes were either placed directly in DMAP (young oocytes) or given in ionomycin (5 μM) treatment for 4 minutes plus DMAP treatment immediately after enucleation, i.e., at 20 hours maturation. At the end of the DMAP treatment, approximately 24 hours, embryonic cells were transferred into the oocytes and electrofusion was induced. The concentration of activating chemicals used were the same as those described in Experiment 6. The embryos were placed in maturation medium CR1aa for 6 to 7 days to determine developmental rates to blastocyst stage.

[2] = test system: bovine oocytes matured for 24 hours; assay: Parthenogenic activation of in vitro matured bovine oocytes (activation, pronuclear formation); format: cell-based; details: for Activation of oocytes, result in words / Chromosome / pronuclear outcome, result in words: Experiment 1, 5 hours of culture, FIG. 1b-1d; for % Activation / % Pronuclear formation: oocytes matured 24 h, ionomycin 5 μM 4 min and/or DMAP for 5 hours, determined after 5 hours of culture
Procedure: Bovine oocytes were obtained at an abattoir and transported to the laboratory in saline (30-34° C., transport time 2-6 hr). Oocytes from small follicles (1-6 mm) were aspirated and matured according to the methods described in Sirard et al., 1988. Briefly, oocytes were diluted out of the follicular fluid with 3 dilutions of TL HEPES modified by removing glucose, adding 0.22 mM pyruvate and 1 mg/ml of BSA (Fraction V, Sigma Chemical CO, St. Louis, Mo.).
The oocytes were placed in 50 μl drops of TCM-199 (Earle's Salts; Gibco, Grand Island, N.Y.) supplemented with 10% heat treated fetal calf serum, 0.22 mM pyruvate, 5 μg/ml FSH-P (Scherring-Plough Animal Health Corp., Kenilworth, N.J.) and 1 μ/ml estradiol. Ten oocytes were incubated in a 50 μl drop under paraffin oil for 24 hours at 39° C. in 5% CO2 in air humidified atmosphere.
(§1) The cumulus was removed from matured oocytes by vortexing vigorously in 200 μl or TL-HEPES for 3 min. The denuded oocytes were diluted in 3 changes of TL-HEPES to separate the oocytes from the cumulus cells. Where indicated, the oocytes were exposed to 5 μM ionomycin (5 mM stock in DMSO; Calbiochem, La Jolla, Calif.) in TL-HEPES (1 mg/ml fatty acid free BSA) for 4 min. The oocytes were then diluted into TL-HEPES (30 mg/ml fatty acid BSA) for 5 min followed by dilution into TL-HEPES (1 mg/ml Fraction V BSA). The oocytes were then moved to 50 μl drops of embryonic cell development media (U.S. Pat. No. 5,096,822 to Rosenkrans et al., with or without DMAP (1.9 mM) for the indicated times (39° C., 5% CO2 in air). Embryonic cell development media contained 114.6 mM NaCl, 3.1 mM KCl, 5 mM hemi-calcium lactate, 0.4 mM Na pyruvate, 1 mM glutamine, 3 mg/ml fatty acid free BSA, MEM nonessential amino acids and BME amino acids.
Activation was evaluated at times indicated in each experiment. The oocytes were mounted on slides, fixed with acetic acid:alcohol (1:3) and observed with Nomarski optics. Special care was taken in determining if metaphase plates were metaphase II or aberrant metaphase III (Kubiak, 1989). Oocytes that contained a metaphase I or II plate were considered not activated. Oocytes that contained anaphase, telophase or metaphase […] plates or pronuclei were considered to be activated.
Experiment 1 determined the effect of sequential exposure of oocytes to ionomycin and DMAP. One level of ionomycin (5 μM) and DMAP (1.9 mM) was used throughout all studies. The oocytes were cultured for 5 hours after ionomycin incubation with or without DMAP. Control oocytes were cultured in embryonic cell development medium alone. Activation was determined after 5 hours of culture. […]
Experiment 3 was designed to determine the kinetics of activation when oocytes were exposed to ionomycin alone or to ionomycin followed by a 3 hour incubation in DMAP. At the end of the 3 hour incubation, oocytes in DMAP were diluted in TL-HEPES (1 mg/ml Fraction V BSA) and moved to embryonic cell development medium until mounting. A sample of oocytes from both treatments were mounted at 1, 2, 3, 4 and 5 hours after exposure to ionomycin to determine the activation state.
Experiment 4 was designed to determine the time at which DMAP is necessary for parthenogenic activation relative to the exposure to ionomycin. The oocytes were exposed to ionomycin and placed in embryonic cell development medium. At 0, 1, 2, 2.5, 3 and 4 hours after ionomycin exposure, oocytes were placed in embryonic cell development medium+DMAP. At 5 hours post ionomycin exposure, the oocytes were mounted to determine their activation state.

[3] = test system: 42-hour oocyte derived nuclear transfer (NT) embryos; assay: Development of 42-hour oocyte derived nuclear transfer embryos; format: cell-based, bovine; details: 1.9 mM DMAP with room temperature activation (RTC) 2 hours; 140 NTs to culture; 6 to 7 days
Procedure: Bovine oocytes were obtained and placed in maturation media for approximately 20 hours. The cumulus cells were then stripped off the oocytes according to the previously described procedures.
The oocytes were then enucleated according to Prather et al. and placed in CR1aa maturation medium until 40 hours had elapsed. The oocyte were then placed in CR1aa maturation medium with 1.9 mM DMAP for 2 hours and incubated at room temperature activation (RTC) conditions (about 25° C.).
Following incubation, embryonic cells were transferred into the oocytes and the 2 cells were electrically fused together according to the procedures described in Prather et al., with the exception of the step of waiting until 42 hours to activate via RTC (25° C.) and adding DMAP prior to the time of electrofusion. The fused nuclear transfer embryos were then cultured in maturation medium CR1aa for 6 to 7 days to determine developmental rates to the blastocyst stage.

[4] = test system: bovine oocytes matured for 24 hours; assay: Parthenogenic development of activated oocytes (initial cleavage, blastocyst, blastocyst cell number); format: cell-based; details: for Development to Blastocyst (± se): after ionomycin 5 μM, day 7-8 of culture; for cell number in resulting parthenote blastocysts, Good / cell number in resulting parthenote blastocysts, Poor: after ionomycin
Procedure: as §1
In experiments that determined development potential of the parthenotes, activated oocytes were cultured for 7-8 days in embryonic cell development media. On the date after activation, initial cleavage was determined by visual observation. On day 4 of incubation 5% heat treated fetal calf serum was added to each drop. For some experiments, blastocysts were mounted and fixed in acetic acid:alcohol (1:3) and stained with 1% orcein dissolved in 40% acetic acid to determine cell numbers.
Experiments 2a and 2b determined the effect of time of incubation in DMAP on activation and development. In Experiment 2a, oocytes were incubated in DMAP for 15, 30, 60, 150 and 300 minutes. At the end of the incubation time indicated, oocytes were rinsed in TL-HEPES (1 mg/ml Fraction V BSA) and placed into embryonic cell development medium until 5 hours had elapsed. At 5 hours, a subsample of oocytes was removed and mounted to determine activation. The remaining oocytes were returned to the incubator for 7-8 days. Blastocytes on day 7-8 were rated as good or poor and cell number was determined.
Experiment 2b was similar in design except that oocytes were incubated for 2 hours, 3 hours, 4 hours, or 5 hours in DMAP.

[5] = Experiment 3, FIG. 2, time after exposure to ionomycin

For `CN(C)c1ncnc2nc[nH]c12` [DMAP, 6-dimethylaminopurine], the “% Usable” value ([1]; cultured 6 to 7 days) was 0%, the “Development Rate to Blastocyst” value ([1]; cultured 6 to 7 days) was 0% and the “Cleavage Rate” value ([1]; fused after activation) was 4%. The “Activation of oocytes, result in words” value [2] was “did not activate the oocytes”, the “Chromosome / pronuclear outcome, result in words” value [2] was “caused the chromosomes to form a tight clump in the cytoplasm” and the “Effect of interval from ionomycin treatment to exposure to DMAP, result in words” value ([2]; Experiment 4, FIG. 3, interval more than 1 hour, mounted 5 hours post ionomycin) was “increase in ability to resume meiosis”. For the same molecule, the “% Activation” value [2] was 7.8 ± 5.5^a %, the “% Pronuclear formation” value [2] was 7.8 ± 5.5^a % and the “Number Blastocyst” value [3] was 40. The “Number Blastocyst, percent” value [3] was 29%, the “Number Usable Blastocyst” value [3] was 18 and the “Number Usable Blastocyst, percent” value [3] was 13%. For the same molecule, the “Development to Blastocyst (± se)” value ([4]; Experiment 2b, DMAP incubation 0 h (ionomycin alone)) was 0^a %, the “Development to Blastocyst (± se)” value ([4]; 6-DMAP 1.9 mM incubation 15 min) was 0^a % and the “Development to Blastocyst (± se)” value ([4]; 6-DMAP 1.9 mM incubation 30 min) was 0^a %. The “Development to Blastocyst (± se)” value ([4]; 6-DMAP incubation 0 min (ionomycin alone)) was 0^a %, the “cell number in resulting parthenote blastocysts, Good” value (“cell number … Good” for short) ([4]; DMAP incubation 2 h) was 88.7 and the “cell number … Good” value ([4]; DMAP incubation 3 h) was 70.1. For the same molecule, the “cell number in resulting parthenote blastocysts, Poor” value (“cell number … Poor” for short) ([4]; DMAP incubation 3 h) was 33.1, the “cell number … Good” value ([4]; DMAP incubation 4 h) was 73.6 and the “cell number … Poor” value ([4]; DMAP incubation 4 h) was 40.1. For the same molecule, the “cell number … Good” value ([4]; DMAP incubation 5 h) was 83.7 and the “cell number … Poor” value ([4]; DMAP incubation 5 h) was 44.

`C[C@H](CCC(=O)O)C[C@H](C)C[C@H](C)C(=O)/C=C(\O)[C@H](C)C[C@H](C)C/C=C/[C@@H](C)[C@@H](O)[C@@H](C)[C@@H](O)C[C@@H]1CC[C@@](C)([C@H]2CC[C@@](C)([C@@H](C)O)O2)O1` [Ionomycin, ionomycin] was tested, and the “Activation of oocytes, result in words” value [2] was “activated the oocytes to a high level”, the “Chromosome / pronuclear outcome, result in words” value [2] was “instead of forming pronuclei the chromosomes reassembled into a metaphase plate” and the “Time by which oocytes had resumed meiosis” value [2, 5] was ≤ 1 h. For the same molecule, the “Time by which oocytes were arrested in metaphase III” value [2, 5] was 4 to 5 h, the “% Activation” value [2] was 57.8 ± 7.8^b % and the “% Pronuclear formation” value [2] was 8.9 ± 7.3^a %.
